Patent US20050208496A1, “Methods of testing for bronchial asthma or chronic obstructive pulmonary disease” (Genox Research, Inc., priority 2002, published 2005)

Tested on: respiratory epithelial cells

Substance: IL-13: human IL-13 (Peprotech, Inc.) added to the medium at 50 ng/mL to stimulate respiratory epithelial cells
- IFIT4 (38584_at) expression, fold change upon IL-13 stimulation (lot 2, Day 3, AI method): 10.3 fold
- IFITM1 (675_at) expression, fold change upon IL-13 stimulation (lot 2, Day 3, AI method): 3.6 fold
- IL13RA2 (1016_s_at) expression fold change upon IL-13 stimulation (lot 2, Day 3, AI method): 15.9 fold
- IL19 (47855_at) expression fold change (lot 2, Day 3, AI method): 10.9 fold
- ILIRL1 (40322_at) expression, fold change upon IL-13 stimulation (lot 2, Day 3, AI method): 9.8 fold
- IRF7 (36412_s_at) expression fold change (lot 2, Day 3, AI method): 3.4 fold
- ISG15 (1107_s_at) expression, fold change upon IL-13 stimulation (lot 2, Day 3, AI method): 8.8 fold
- ISG15 (38432_at) expression, fold change upon IL-13 stimulation (lot 2, Day 3, AI method): 12.6 fold
- ISG20 (33304_at) expression, fold change upon IL-13 stimulation (lot 2, Day 3, AI method): 3.3 fold
- KIAA0537 (33787_at) expression, fold change upon IL-13 stimulation (lot 2, Day 3, AI method): 4.8 fold
- KIAA1199 (36070_at) expression, fold change upon IL-13 stimulation (lot 2, Day 3, AI method): 2.7 fold
- KIAA1268 (57050_at) expression fold change (lot 2, Day 3, AI method): 2.2 fold
- KIAAI268 (59516_at) expression fold change (lot 2, Day 3, AI method): 2.2 fold
- KRT16 (601_s_at) expression fold change (lot 2, Day 3, AI method): 5.2 fold
- LAMP3 (37168_at) expression, fold change upon IL-13 stimulation (lot 2, Day 3, AI method): 5.4 fold
- LOC57118 (51085_at) expression fold change (lot 2, Day 3, AI method): 2.7 fold
- LOC64116 (40456_at) expression, fold change upon IL-13 stimulation (lot 2, Day 3, AI method): 5.6 fold
- MDA5 (51920_at) expression fold change (lot 2, Day 3, AI method): 3.3 fold
- MFHAS1 (50388_at) expression fold change (lot 2, Day 3, AI method): 2.4 fold
- MICB (35937_at) expression, fold change upon IL-13 stimulation (lot 2, Day 3, AI method): 2.7 fold
- MKP-L (38272_at) expression, fold change upon IL-13 stimulation (lot 2, Day 3, AI method): 2.5 fold
- MMP7 (668_s_at) expression, fold change upon IL-13 stimulation (lot 2, Day 3, AI method): 3.4 fold
- MP1 (34839_at) expression, fold change upon IL-13 stimulation (lot 2, Day 3, AI method): 2 fold
- MX2 (879_at) expression fold change (lot 2, Day 3, AI method): 6.9 fold
- MXI (37014_at) expression fold change (lot 2, Day 3, AI method): 11.4 fold
- NCF2 (41038_at) expression fold change (lot 2, Day 3, AI method): 4.4 fold
- NK4 (39119_s_at) expression fold change upon IL-13 stimulation (lot 2, Day 3, AI method): 4.1 fold
- NOS2A (1948_f_at) expression fold change upon IL-13 stimulation (lot 2, Day 3, AI method): 14.5 fold
- NOS2A (48918_at) expression fold change (lot 2, Day 3, AI method): 25.4 fold
- OAF (39695_at) expression, fold change upon IL-13 stimulation (lot 2, Day 3, AI method): 2.7 fold
- OAS1 (38388_at) expression fold change upon IL-13 stimulation (lot 2, Day 3, AI method): 6.5 fold
- OAS1 (38389_at) expression fold change upon IL-13 stimulation (lot 2, Day 3, AI method): 4.7 fold
- OAS2 (39263_at) expression fold change upon IL-13 stimulation (lot 2, Day 3, AI method): 3.5 fold
- OSF-2 (1451_s_at) expression fold change upon IL-13 stimulation (lot 2, Day 3, AI method): 86.8 fold
- PKD2 (38120_at) expression, fold change upon IL-13 stimulation (lot 2, Day 3, AI method): 2.4 fold
- PLOD2 (34795_at) expression fold change upon IL-13 stimulation (lot 2, Day 3, AI method): 2 fold
- PLS1 (39951_at) expression fold change (lot 2, Day 3, AI method): 3.1 fold
- PLSCR1 (32775_r_at) expression fold change upon IL-13 stimulation (lot 2, Day 3, AI method): 3 fold
- PMCH (32005_at) expression fold change (lot 2, Day 3, AI method): 12.2 fold
- PSMB9 (38287_at) expression fold change upon IL-13 stimulation (lot 2, Day 3, AI method): 2.7 fold
- PVRL2 (50320_g_at) expression fold change (lot 2, Day 3, AI method): 2.2 fold
- RASGRP1 (33291_at) expression fold change (lot 2, Day 3, AI method): 3.7 fold
- RIG-1 (59215_at) expression fold change (lot 2, Day 3, AI method): 11.8 fold
- SAMHD1 (34714_at) expression, fold change upon IL-13 stimulation (lot 2, Day 3, AI method): 3.7 fold
- SCYB10 (431_at) expression fold change upon IL-13 stimulation (lot 2, Day 3, AI method): 4.9 fold
- SCYB11 (35061_at) expression fold change upon IL-13 stimulation (lot 2, Day 3, AI method): 6.8 fold
- SECTM1 (41045_at) expression, fold change upon IL-13 stimulation (lot 2, Day 3, AI method): 6.8 fold
- SERPINB2 (37185_at) expression fold change (lot 2, Day 3, AI method): 4.1 fold
- SERPINB4 (1549_s_at) expression fold change (lot 2, Day 3, AI method): 9.6 fold
- SERPINB6 (34789_at) expression fold change (lot 2, Day 3, AI method): 2.1 fold
- SIAT1 (41352_at) expression fold change upon IL-13 stimulation (lot 2, Day 3, AI method): 3.9 fold
- SLC26A4, pendrin (36376_at) expression fold change (lot 2, Day 3, AI method): 118.3 fold
- SSI-1 (41592_at) expression, fold change upon IL-13 stimulation (lot 2, Day 3, AI method): 15.5 fold
- STAT1 (32860_g_at) expression fold change (lot 2, Day 3, AI method): 2.1 fold
- STAT1 (33338_at) expression fold change (lot 2, Day 3, AI method): 5.8 fold
- STAT1 (33339_g_at) expression fold change (lot 2, Day 3, AI method): 3.2 fold
- TGFB2 (1262_s_at) expression fold change upon IL-13 stimulation (lot 2, Day 3, AI method): 4.1 fold
- TGM2 (38404_at) expression fold change upon IL-13 stimulation (lot 2, Day 3, AI method): 2.1 fold
- THBS1 (115_at) expression fold change upon IL-13 stimulation (lot 2, Day 3, AI method): 4.1 fold
- TSPAN-3 (38612_at) expression, fold change upon IL-13 stimulation (lot 2, Day 3, AI method): 2.5 fold
- UBE2L6 (40505_at) expression fold change upon IL-13 stimulation (lot 2, Day 3, AI method): 2.1 fold
- UFD1L (811_at) expression, fold change upon IL-13 stimulation (lot 2, Day 3, AI method): 3.1 fold
- WARS (38121_at) expression fold change upon IL-13 stimulation (lot 2, Day 3, AI method): 8.7 fold
- cig5 (38549_at) expression, fold change upon IL-13 stimulation (lot 2, Day 3, AI method): 14.3 fold
- diubiquitin (39959_at) expression, fold change upon IL-13 stimulation (lot 2, Day 3, AI method): 16.3 fold
- AA167714 (54897_at) expression fold change (lot 2, Day 7, AI method): 4.7 fold
- AA420479 (52539_at) expression fold change (lot 2, Day 7, AI method): 10.1 fold
- AA541787 (52622_at) expression fold change (lot 2, Day 7, AI method): 3.9 fold
- AA582926 (52307_at) expression fold change (lot 2, Day 7, AI method): 3.7 fold
- AA604375 (44127_at) expression fold change (lot 2, Day 7, AI method): 3.9 fold
- ACP5 (677_s_at) expression, fold change upon IL-13 stimulation (lot 2, Day 7, AI method): 2.8 fold
- ADAM8 (40712_at) expression, fold change upon IL-13 stimulation (lot 2, Day 7, AI method): 4.5 fold
- ADAM28 (35479_at) expression, fold change upon IL-13 stimulation (lot 2, Day 7, AI method): 3.7 fold
- AI565105 (54886_at) expression fold change (lot 2, Day 7, AI method): 2.4 fold
- AI659927 (54033_at) expression fold change (lot 2, Day 7, AI method): 3 fold
- AI700705 (46658_at) expression fold change (lot 2, Day 7, AI method): 2.5 fold
- AI821796 (57694_at) expression fold change (lot 2, Day 7, AI method): 2.5 fold
- AI989346 (52327_s_at) expression fold change (lot 2, Day 7, AI method): 2.5 fold
- AKAP2 (35985_at) expression, fold change upon IL-13 stimulation (lot 2, Day 7, AI method): 7.6 fold
- AKAP2 (48035_at) expression fold change (lot 2, Day 7, AI method): 6.4 fold
- AKAP10 (36632_at) expression, fold change upon IL-13 stimulation (lot 2, Day 7, AI method): 2.4 fold
- ALOX15 (34636_at) expression, fold change upon IL-13 stimulation (lot 2, Day 7, AI method): 322.1 fold
- ARHE (35803_at) expression fold change upon IL-13 stimulation (lot 2, Day 7, AI method): 2 fold
- ARL7 (57151_at) expression fold change (lot 2, Day 7, AI method): 5.3 fold
- AW019985 (48826_s_at) expression fold change (lot 2, Day 7, AI method): 14.7 fold
- AXL (38433_at) expression, fold change upon IL-13 stimulation (lot 2, Day 7, AI method): 7.5 fold
- BAL (52167_at) expression fold change (lot 2, Day 7, AI method): 1.6 fold
- BIG2 (34484_at) expression, fold change upon IL-13 stimulation (lot 2, Day 7, AI method): 2.9 fold
- BST2 (39061_at) expression, fold change upon IL-13 stimulation (lot 2, Day 7, AI method): 3.1 fold
- C1S (40496_at) expression, fold change upon IL-13 stimulation (lot 2, Day 7, AI method): 4.1 fold
- C21orf11 (58957_at) expression fold change (lot 2, Day 7, AI method): 2.4 fold
- CDH6 (1620_at) expression fold change upon IL-13 stimulation (lot 2, Day 7, AI method): 12.1 fold
- CDH6 (57421_at) expression fold change (lot 2, Day 7, AI method): 3.7 fold
- CDH26 (46916_at) expression fold change (lot 2, Day 7, AI method): 5.4 fold
- CH25H (32363_at) expression, fold change upon IL-13 stimulation (lot 2, Day 7, AI method): 12 fold
- CLDN1 (46260_at) expression fold change (lot 2, Day 7, AI method): 3.6 fold
- CLDN4 (35276_at) expression, fold change upon IL-13 stimulation (lot 2, Day 7, AI method): 23 fold
- CLDN5 (38995_at) expression, fold change upon IL-13 stimulation (lot 2, Day 7, AI method): 8.3 fold
- CTSC (133_at) expression, fold change upon IL-13 stimulation (lot 2, Day 7, AI method): 2.2 fold
- CXCL16 (44095_at) expression fold change (lot 2, Day 7, AI method): 2 fold
- DBCCR1 (40292_at) expression, fold change upon IL-13 stimulation (lot 2, Day 7, AI method): 19.3 fold
- DD96 (31610_at) expression, fold change upon IL-13 stimulation (lot 2, Day 7, AI method): 2.5 fold
- DDIT3 (39420_at) expression, fold change upon IL-13 stimulation (lot 2, Day 7, AI method): 29.5 fold
- DKFZP564O0823 (41402_at) expression, fold change upon IL-13 stimulation (lot 2, Day 7, AI method): 4.6 fold
- DKFZP566J091 (57197_at) expression fold change (lot 2, Day 7, AI method): 15.2 fold
- DKFZp564N1116 (37784_at) expression, fold change upon IL-13 stimulation (lot 2, Day 7, AI method): 7.8 fold
